{"source": "patent US11723877B2", "about": "“Microencapsulation process and product” (SPI PHARMA, INC., priority 2010, dated 2023)", "key": {"[1]": {"test": "Dissolution of orally dispersible ibuprofen powder, USP apparatus IV flow through cell, phosphate buffer pH 7.2", "type": "physicochemical", "conditions": "phosphate buffer pH 7.2, 37° C., 16 mL/min, 900 mL, ODP 200 mg, average of two", "description": "A USP apparatus IV flow through cell was used to measure the dissolution of three orally dispersible powder blends of Ibuprofen. Powder blends were made up of: Example 6 (SPI Pharma); uncoated Ibuprofen 50 (BASF, Florham Park, N.J.); and Dasan Medichem (Soul, Korea) taste-masked Ibuprofen. Each sample was weighed and mixed by the process of spatulation until mixed. This mixture was passed through #30 mesh ASTM and packed in stick packs.\n(§1) An amount of sample equivalent to contain 200 mg of Ibuprofen was weighed out and placed in the bead mixture of the flow through cell. At a rate of 16 ml/min, a 37° C. pH 7.2 phosphate buffer was pumped through cell and the effluent from the cell was collected in a reservoir vessel and samples removed for subsequent analysis in HPLC for Ibuprofen content at the time point specified. The data is an average of two determinations."}, "[2]": {"test": "Dissolution of orally dispersible acetaminophen powder, USP apparatus IV flow through cell, phosphate buffer pH 5.8", "type": "physicochemical", "conditions": "phosphate buffer pH 5.8, 37° C., 16 mL/min, 900 mL, ODP 160 mg, average of two", "excerpt": "A USP apparatus IV flow through cell was used to measure the dissolution of three orally dispersible powder blends of acetaminophen. Powder blends were made up of: Example 7 (SPI Pharma); uncoated Acetaminophen (Covidien, St. Louis, Mo.)) special granular; and Eurand (Dayton, Ohio) taste-masked Acetaminophen. Each sample was weighed and mixed by the process of spatulation until mixed. This mixture was passed through #30 mesh ASTM and packed in stick packs.\nas §1, with “160” for “200”, “Acetaminophen” for “Ibuprofen”, “5.8” for “7.2”"}, "[3]": {"test": "physchem", "conditions": "aqueous buffer"}, "[4]": {"test": "Acetaminophen dissolution, USP method (900 mL water, 50 rpm, Apparatus 2)", "type": "physicochemical", "conditions": "first of five data columns, no own time in head (taken as 0 min)", "description": "Acetaminophen dissolution was compared between microcapsules prepared from Run #2 and Run #4, an uncoated acetaminophen standard and a commercial acetaminophen coated with ethylcellulose by USP dissolution method for Acetaminophen (900 mL water, 50 rpm, Apparatus 2)."}}}
{"smiles": "CC(C)Cc1ccc(C(C)C(=O)O)cc1", "note": "(centres unmarked) [Plain API, Ibuprofen]", "values": [{"measurement": "Ibuprofen dissolution %", "setting": "[1]; 5 min", "value": 70, "unit": "%"}, {"measurement": "Ibuprofen dissolution %", "setting": "[1]; 10 min", "value": 88, "unit": "%"}, {"measurement": "Ibuprofen dissolution %", "setting": "[1]; 20 min", "value": 91, "unit": "%"}, {"measurement": "Ibuprofen dissolution %", "setting": "[1]; 30 min", "value": 94, "unit": "%"}, {"measurement": "Ibuprofen dissolution %", "setting": "[1]; 45 min", "value": 94, "unit": "%"}, {"measurement": "Ibuprofen dissolution %", "setting": "[1]; 60 min", "value": 94, "unit": "%"}]}
{"smiles": "CC(=O)Nc1ccc(O)cc1", "note": "[Uncoated Acetaminophen, Acetaminophen]", "values": [{"measurement": "Acetaminophen dissolution %", "setting": "[2]; 5 min", "value": 95, "unit": "%"}, {"measurement": "Acetaminophen dissolution %", "setting": "[2]; 10 min", "value": 96, "unit": "%"}, {"measurement": "Acetaminophen dissolution %", "setting": "[2]; 15 min", "value": 96, "unit": "%"}, {"measurement": "Acetaminophen dissolution %", "setting": "[2]; 30 min", "value": 96, "unit": "%"}, {"measurement": "Acetaminophen dissolution %", "setting": "[2]; 45 min", "value": 96, "unit": "%"}, {"measurement": "Acetaminophen dissolution %", "setting": "[2]; 60 min", "value": 96, "unit": "%"}]}
{"smiles": "CC(C)Cc1ccc(C(C)C(=O)O)cc1", "note": "(centres unmarked) [uncoated ibuprofen, ibuprofen]", "values": [{"measurement": "solubility", "setting": "[3]", "value": "< 1000", "unit": "µM"}]}
{"smiles": "CC(=O)Nc1ccc(O)cc1", "note": "[Uncoated Acetaminophen STD, Acetaminophen]", "values": [{"measurement": "Percent (%) Drug Released", "setting": "[4]", "value": 0, "unit": "%"}]}
